Data: patent US20250051409A1, “MODULATORS OF PHOSPHATIDYLSERlNE DECARBOXYLASE AND USE THEREOF” (THE NATIONAL INSTITUTE FOR BIOTECHNOLOGY IN THE NEGEV LTD., priority 2021, published 2025)
Read-outs that look alike come from different tables or passages of the source. Square brackets hold non-standard residues; d marks the D form. Ends that are not written are not given here. Peptide text beside a SMILES is read from it. Dmt = Cc1cc(O)cc(C)c1C[C@H](N)C(=O)O; Orn = NCCC[C@H](N)C(=O)O

Assays:
A549 lung cancer cell = assay type: cell-based, human
Procedure: (B) Inhibition of PSD activity by the 2F3 (●) or 1C11 (◯) peptide. PSD activity was measured using the DSB-3 method. (C-E) Cell proliferation inhibition following incubation of A549 cells with the indicated mitochondria- or nuclear-targeted peptides for 24 h in a serum-free medium, and cell proliferation was assayed using the SRB method. Results are the means±SEM (n=3). (F) A549 cells were incubated for 90 min with 5 μM of the mitochondria- or nuclear targeted FITC-labelled peptides, immunostained with anti-SMAC antibodies and with DAPI and visualized by confocal microscope for subcellular localization. Arrows indicates nuclear (n=3). Scale bars represent 20
(A) A549 cells were incubated with the indicated concentration of 1C11-HTRA2-derived peptide targeted to the mitochondrion with the targeting sequence added to the N-terminus (N-Ter) or the C-terminus (C-Ter). (B) Mitochondrion targeted 1C11-HTRA2-derived peptide was modified by replacing the three amino acids in the C or the N-terminus of the peptide, or all amino acids in the peptide with the D-confirmation of the amino acid (underlined amino acids)). Following 24 h incubation in a serum-free medium, cell proliferation was assayed using the SRB method. (C) The concentration required for 50% inhibition of cell proliferation (IC50) is presented. Results are the means±SEM (n=3).
A549 (human lung adenocarcinoma epithelial cell), HEK-293T (human embryonic kidney), H1563/CRL-5875 (non-small cell lung cancer adenocarcinoma), H-358 (bronchioalveolar carcinoma), HaCaT (spontaneously transformed aneuploid immortal human skin keratinocyte), and WI-38 (fibroblast-like fetal lung cell) cell lines were purchased from the American Type Culture Collection (ATCC) (Manassas, VA), and were maintained as per ATCC instructions. Cells were maintained in ATCC recommended medium at 37° C. in an incubator with 5% CO2. Cell lines were routinely tested for Mycoplasma contamination. For SMAC overexpression, cells were seeded (200,000 cells/well) on 6-well culture plates and allowed to adhere overnight. These adhered cells were transfected with PVMV3.1-SMAC or empty vector using the JetPRIME transfection reagent (Illkirch, France), according to the manufacturers' instructions. Medium was changed 6 h post transfection, and cells were harvested 48 h post transfection.
Cells were seeded in 96-well cell culture plates (8,000/well) and allowed to grow for 48 h. After washing with PBS, cells were fixed with 10% trichloroacetic acid, and stained with SRB for 20 min. Excess SRB were removed, and cells were washed with 1% acetic acid. SRB extraction was done using 100 mM Tris-base, and absorbance at 510 nm was determined using an Infinite M1000 plate reader (Tecan, Mannedorf, Switzerland).

A549 cell xenografts = conditions: tumors injected 3 times a week, final concentration 50 μM
Procedure: A549 cells were S.C. inoculated into female nude mice (7×10^6 cells/mouse). Tumors sizes were measured (using a digital caliper) and volumes were calculated. When tumors volumes reached 60-100 mm3 (day 12), the mice were divided into 2 groups and xenografts were untreated (●) or treated with HtrA2/Omi-derived D-amino acid peptide targeted to the mitochondria (D-HTRA2-M, o). The tumors were injected 3 times a week to a final concentration of 50 μM. […] Tumors of A549 cell xenografts were dissected, photographed (B) and weighted (C). […] Results represent the means±SEM (n=8), **P≤0.01, ***P≤0.001.
A549 cells were inoculated subcutaneously into female nude mice (7×10^6 cells/mouse). Tumors sizes were measured (using a digital caliper) and volumes were calculated. When tumors volumes reached 60-100 mm3 (day 12), the mice were divided into 2 groups (control and treatment) and in the treatment group xenografts were treated with HtrA2/Omi-derived D-amino acid peptide (SEQ ID NO:35) targeted to the mitochondria. The tumors were injected 3 times a week to a final concentration of 50 μM or the peptide was administered by intravenous injection 2 times a week to a final concentration of 20 mg/kg. Tumors of A549 cell xenografts were dissected, photographed and weighted.

different cell lines = conditions: cited from earlier work

Molecule	IC50 (A549 lung cancer cell; 24 h) [µM]	further results
CC[C@H](C)[C@H](NC(=O)[C@@H](NC(=O)[C@H](CC(N)=O)NC(=O)[C@H](C)NC(=O)[C@H](CCCCN)NC(=O)[C@H](CC(C)C)NC(=O)[C@H](CC(C)C)NC(=O)[C@H](CC(N)=O)NC(=O)[C@H](CC(=O)O)NC(=O)[C@H](CC(C)C)NC(=O)[C@@H](NC(=O)[C@@H]1CCCN1C(=O)[C@H](CC(C)C)NC(=O)[C@@H](NC(=O)[C@H](CS)NC(=O)[C@@H](NC(=O)[C@H](CC(C)C)NC(=O)[C@H](CCC(N)=O)NC(=O)[C@H](CCC(N)=O)NC(=O)[C@H](Cc1ccccc1)NC(=O)[C@H](Cc1ccccc1)NC(=O)[C@H](CCCN)NC(=O)[C@H](Cc1c(C)cc(O)cc1C)NC(=O)[C@H](N)CCCNC(=N)N)[C@@H](C)O)C(C)C)[C@@H](C)CC)C(C)C)C(=O)N[C@@H](CC(N)=O)C(=O)N[C@@H](CCCCN)C(=O)N[C@@H](CCC(N)=O)C(=O)N[C@@H](CCC(=O)O)C(=O)N[C@@H](Cc1c[nH]cn1)C(=O)O [D-Arg-Dmt-Orn-Phe-1E14] (H-[dR][Dmt][Orn]FFQQLTCVLPILDNLLKANVINKQEH-OH; N-terminus and C-terminus assumed)	> 100	
Cc1cc(O)cc(C)c1C[C@H](NC(=O)[C@H](N)CCCNC(=N)N)C(=O)N[C@@H](CCCN)C(=O)N[C@@H](Cc1ccccc1)C(=O)N1CCC[C@H]1C(=O)N[C@@H](CC(N)=O)C(=O)N[C@@H](CCC(N)=O)C(=O)N[C@@H](CO)C(=O)N[C@@H](CO)C(=O)N[C@@H](CCCNC(=N)N)C(=O)N[C@@H](C)C(=O)N[C@@H](Cc1ccccc1)C(=O)N[C@@H](CCC(N)=O)C(=O)NCC(=O)N[C@H](C(=O)N[C@@H](CC(=O)O)C(=O)N[C@@H](Cc1c[nH]cn1)C(=O)N[C@@H](CO)C(=O)N[C@@H](CO)C(=O)N[C@@H](CC(=O)O)C(=O)N[C@@H](CC(C)C)C(=O)N[C@@H](C)C(=O)N[C@@H](Cc1ccccc1)C(=O)N[C@@H](CC(=O)O)C(=O)N[C@@H](Cc1ccccc1)C(=O)N[C@@H](CC(C)C)C(=O)N[C@@H](CO)C(=O)N[C@@H](CCC(N)=O)C(=O)N[C@@H](CCC(N)=O)C(=O)O)[C@@H](C)O [D-Arg-Dmt-Orn-Phe-2I8] (H-[dR][Dmt][Orn]FPNQSSRAFQGTDHSSDLAFDFLSQQ-OH; N-terminus and C-terminus assumed)	66.8 ± 4.7	
CC[C@H](C)[C@H](NC(=O)[C@@H]1CCCN1C(=O)[C@H](CO)NC(=O)[C@H](CO)NC(=O)[C@@H](NC(=O)[C@H](CO)NC(=O)[C@H](CC(C)C)NC(=O)[C@H](C)NC(=O)[C@H](Cc1ccccc1)NC(=O)[C@H](CCCN)NC(=O)[C@H](Cc1c(C)cc(O)cc1C)NC(=O)[C@H](N)CCCNC(=N)N)[C@@H](C)O)C(=O)N1CCC[C@H]1C(=O)N[C@@H](CO)C(=O)N[C@H](C(=O)N1CCC[C@H]1C(=O)N[C@@H](CCC(N)=O)C(=O)N[C@@H](CO)C(=O)N[C@@H](CCC(N)=O)C(=O)N[C@@H](C)C(=O)N[C@@H](CCC(N)=O)C(=O)N1CCC[C@H]1C(=O)N[C@@H](CCC(N)=O)C(=O)N[C@H](C(=O)NCC(=O)N[C@@H](CO)C(=O)NCC(=O)N[C@@H](C)C(=O)N[C@@H](CO)C(=O)O)[C@@H](C)O)C(C)C [H-(D-Arg)-Dmt-Orn-Phe-2F3] (H-[dR][Dmt][Orn]FALSTSSPIPSVPQSQAQPQTGSGAS-OH; C-terminus assumed)	> 100	
CC(C)C[C@H](NC(=O)[C@H](CCCNC(=N)N)NC(=O)[C@H](C)NC(=O)[C@H](Cc1c[nH]c2ccccc12)NC(=O)[C@H](CC(C)C)NC(=O)[C@H](CO)NC(=O)[C@@H]1CCCN1C(=O)[C@@H](NC(=O)CNC(=O)[C@H](Cc1ccc(O)cc1)NC(=O)[C@@H](NC(=O)[C@@H](NC(=O)[C@H](CCCNC(=N)N)NC(=O)[C@H](C)NC(=O)[C@H](CCCNC(=N)N)NC(=O)[C@@H]1CCCN1C(=O)[C@H](CC(=O)O)NC(=O)[C@H](CO)NC(=O)[C@@H](NC(=O)CNC(=O)[C@H](CO)NC(=O)[C@@H](NC(=O)[C@H](CC(C)C)NC(=O)[C@H](CC(C)C)NC(=O)[C@H](C)NC(=O)[C@H](CCCCN)NC(=O)[C@H](CCCNC(=N)N)NC(=O)[C@@H](CCCNC(=N)N)NC(=O)[C@@H](N)CCCNC(=N)N)[C@@H](C)O)[C@@H](C)O)C(C)C)[C@@H](C)O)[C@@H](C)O)C(=O)O [R-{D-Arg}-RK-1C11] (H-R[dR]RKALLTSGTSDPRARVTYGTPSLWARL-OH; N-terminus and C-terminus assumed)	66.5 ± 3.9	
CC[C@H](C)[C@H](NC(=O)[C@@H](NC(=O)[C@H](CC(N)=O)NC(=O)[C@H](C)NC(=O)[C@H](CCCCN)NC(=O)[C@H](CC(C)C)NC(=O)[C@H](CC(C)C)NC(=O)[C@H](CC(N)=O)NC(=O)[C@H](CC(=O)O)NC(=O)[C@H](CC(C)C)NC(=O)[C@@H](NC(=O)[C@@H]1CCCN1C(=O)[C@H](CC(C)C)NC(=O)[C@@H](NC(=O)[C@H](CS)NC(=O)[C@@H](NC(=O)[C@H](CC(C)C)NC(=O)[C@H](CCC(N)=O)NC(=O)[C@H](CCC(N)=O)NC(=O)[C@H](Cc1ccccc1)NC(=O)[C@H](CCCCN)NC(=O)[C@H](CCCNC(=N)N)NC(=O)[C@@H](CCCNC(=N)N)NC(=O)[C@@H](N)CCCNC(=N)N)[C@@H](C)O)C(C)C)[C@@H](C)CC)C(C)C)C(=O)N[C@@H](CC(N)=O)C(=O)N[C@@H](CCCCN)C(=O)N[C@@H](CCC(N)=O)C(=O)N[C@@H](CCC(=O)O)C(=O)N[C@@H](Cc1c[nH]cn1)C(=O)O [R-{D-Arg}-RK-1E14] (H-R[dR]RKFQQLTCVLPILDNLLKANVINKQEH-OH; N-terminus and C-terminus assumed)	> 100	
CC[C@H](C)[C@H](NC(=O)[C@@H]1CCCN1C(=O)[C@H](CO)NC(=O)[C@H](CO)NC(=O)[C@@H](NC(=O)[C@H](CO)NC(=O)[C@H](CC(C)C)NC(=O)[C@H](C)NC(=O)[C@H](CCCCN)NC(=O)[C@H](CCCNC(=N)N)NC(=O)[C@@H](CCCNC(=N)N)NC(=O)[C@@H](N)CCCNC(=N)N)[C@@H](C)O)C(=O)N1CCC[C@H]1C(=O)N[C@@H](CO)C(=O)N[C@H](C(=O)N1CCC[C@H]1C(=O)N[C@@H](CCC(N)=O)C(=O)N[C@@H](CO)C(=O)N[C@@H](CCC(N)=O)C(=O)N[C@@H](C)C(=O)N[C@@H](CCC(N)=O)C(=O)N1CCC[C@H]1C(=O)N[C@@H](CCC(N)=O)C(=O)N[C@H](C(=O)NCC(=O)N[C@@H](CO)C(=O)NCC(=O)N[C@@H](C)C(=O)N[C@@H](CO)C(=O)O)[C@@H](C)O)C(C)C [R-{D-Arg}-RK-2F3] (H-R[dR]RKALSTSSPIPSVPQSQAQPQTGSGAS-OH; N-terminus and C-terminus assumed)	28.9 ± 5.2	
CC(C)C[C@H](NC(=O)[C@H](CC(=O)O)NC(=O)[C@H](CO)NC(=O)[C@H](CO)NC(=O)[C@H](Cc1c[nH]cn1)NC(=O)[C@H](CC(=O)O)NC(=O)[C@@H](NC(=O)CNC(=O)[C@H](CCC(N)=O)NC(=O)[C@H](Cc1ccccc1)NC(=O)[C@H](C)NC(=O)[C@H](CCCNC(=N)N)NC(=O)[C@H](CO)NC(=O)[C@H](CO)NC(=O)[C@H](CCC(N)=O)NC(=O)[C@H](CC(N)=O)NC(=O)[C@@H]1CCCN1C(=O)[C@H](CCCCN)NC(=O)[C@H](CCCNC(=N)N)NC(=O)[C@@H](CCCNC(=N)N)NC(=O)[C@@H](N)CCCNC(=N)N)[C@@H](C)O)C(=O)N[C@@H](C)C(=O)N[C@@H](Cc1ccccc1)C(=O)N[C@@H](CC(=O)O)C(=O)N[C@@H](Cc1ccccc1)C(=O)N[C@@H](CC(C)C)C(=O)N[C@@H](CO)C(=O)N[C@@H](CCC(N)=O)C(=O)N[C@@H](CCC(N)=O)C(=O)O [R-{D-Arg}-RK-2I8] (H-R[dR]RKPNQSSRAFQGTDHSSDLAFDFLSQQ-OH; N-terminus and C-terminus assumed)	> 100	
ALSTSSPIPSVPQSQAQPQTGSGAS [2F3]		IC50 (A549 lung cancer cell): 19.6 µM
FQQLTCVLPILDNLLKANVINKQEH [1E14]		effect on cell growth (A549 lung cancer cell; targeted to the mitochondria or the nucleus): no effect on cell growth
SEQ ID NO:35: HtrA2/Omi-derived D-amino acid peptide targeted to the mitochondria ([dA][dL][dL][dT][dS]G[dT][dS][dD][dP][dR][dA][dR][dV][dT][dY]G[dT][dP][dS][dL][dW][dA][dR][dL])		decrease in tumor weight (A549 cell xenografts): up to 80%; increase of tumor volume (A549 cell xenografts; after 28 days): about 4 fold
[dR][Dmt][Orn]F [mtCPP-1]		induction of apoptosis (different cell lines): did not induce apoptosis; toxicity in cell lines (different cell lines): no toxicity
